In patent publication US10392363B2, “Methods for treating protozoan infections” (Neoculi Pty Ltd., priority 2014, dated 2019):

Tests used:
[1] = system: Giardia duodenalis (WB strain trophozoites); assay: Transmission electron microscopy study; assay type: cell-based; conditions: 6 μg/ml NCL812, 1 hour
Experimental: Samples were incubated at 37° C. for 1 hour (NCL treated) or 4 hours (Metronidazole and DMSO control) then cold shocked to detach trophozoites. Treated samples were centrifuged at 900×g for 10 minutes and washed twice with cold saline. Final cell pellet was resuspended in pre-cooled fixative (1.25% gluteraldehyde, 4% paraformaldehyde in PBS with 4% sucrose, pH 7.2) and left overnight. […] Samples were embedded in epoxy resin and stained with uranyl acetate and lead citrate before viewing on an FEI Tecnai G2 Spirit Transmission Electron Microscope.

[2] = Release from Formulation B (Franz diffusion cells); assay type: physicochemical; conditions: absolute ethanol receptor, 32° C., up to 24 hours
Experimental: Franz diffusion cells were utilized to quantify the release rate of NCL 812 and NCL099 from its topical formulations. Five milliliters of absolute ethanol, which was chosen as the desired release medium, was loaded into the receptor chamber. Temperature of the receptor fluid was kept constant, at 32±1° C. using a water jacket. Acetyl cellulose membranes, with pore size of 0.45 μm (Pall Corporation) was selected and placed between donor and receptor chamber. Followed by that, a number of test samples (Formulation B) was loaded into the donor chamber. One milliliter of receptor fluid was collected at regular time intervals of 0.25, 0.50, 0.75, 1, 2, 3, 4, 5, 6, 7, 8 and 24 hours through the sampling port. One milliliter of fresh absolute ethanol was immediately returned to the receptor chamber. UV-HPLC was utilized to analyse the content of the receptor fluids attained.

[3] = Cell toxicity assay (WST-1); assay type: cell-based, mouse; conditions: mouse, RAW 264.7, 24 hours, read-out: GI50 macrophage
Outline: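 RAW 264.7 macrophages plated at 2×10^4 cells/ml, rested 2 h at 37 °C, then exposed to compounds (from DMSO) for 24 h. Metabolic activity read by WST-1 at 450 nm after 1 h; IC50 derived, selectivity index as macrophage IC50 divided by antiparasitic IC50.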

[4] = Microsomal stability, mouse; assay type: in vitro ADME; conditions: mouse, 1 μM
Experimental: Incubation methods: The metabolic stability assay was performed by incubating each test compound (at 1 μM) with human and mouse liver microsomes (Xenotech, Lot#1210057 and 1310211, respectively) at 37° C. and 0.4 mg/mL protein concentration. The metabolic reaction was initiated by the addition of an NADPH-regenerating system (i.e. NADPH is the cofactor required for CYP450-mediated metabolism) and quenched at various time points over a 60 minute incubation period by the addition of acetonitrile containing diazepam as internal standard. Control samples (containing no NADPH) were included (and quenched at 2, 30 and 60 minutes) to monitor for potential degradation in the absence of cofactor. Analytical conditions: Instrument: Waters Micromass Xevo G2 QTOF coupled to a Waters Acquity UPLC; Detection: Positive electrospray ionisation under MSE mode; Cone Voltage 30 V; Column: Ascentis Express Amide column (50×2.1 mm, 2.7 μm); LC conditions: Gradient cycle time: 4 minutes; Injection volume: 5 μL; Flow rate: 0.4 mL/min; Mobile phase: Acetonitrile-water gradient with 0.05% formic acid Metabolite; Identification: A metabolite screen was not included in this study, however, since data was acquired using MSE mode, which allows for the simultaneous acquisition of low and high collision energy MS spectra, a post-hoc metabolite search may be conducted at a later date if warranted. […]

[5] = system: Trypanosoma cruzi (Tulahuen trypomastigotes expressing β-galactosidase, in L6 cells); assay: In vitro T. cruzi assay for determination of IC50; assay type: cell-based; conditions: Trypanosoma cruzi, TULAHUEN, L6; 96 h incubation
Outline: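 Tulahuen T. cruzi expressing β-galactosidase, grown in L6 cells; compounds tested as seven-point serial dilutions in triplicate after removing extracellular trypomastigotes.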

In the case of N=C(N/N=C/c1ccc(Cl)cc1)N/N=C/c1ccc(Cl)cc1 [NCL812, 1,3-bis[(E)-(4-chlorophenyl)methyleneamino]guanidine], the “changes to the ultrastructure of Giardia duodenalis” value [1] is reported as “significant changes”, the “release profile from Formulation B” value [2] is reported as “acceptable release profile” and the GI50 at 24 h [3] is reported as 14.8 ± 1.34 µM. For the same compound, the “predicted hepatic extraction ratio (EH)” value [4] was under 0.3 and the IC50 [5] was over 11 µM.
